Reference: the supplement of paper PMC10307832

Key:
Assay in all cases: relative viability (nuclei count vs DMSO), 5 days (fraction); higher = more cells survive
KIN001-266 + Crizotinib = compound: CCN1CCC(CC1)N2C=C(N=N2)CNC3=CC4=C(C(=CN=C4C(=C3)Cl)C#N)NC5=CC(=C(C=C5)F)Cl [KIN001-266] + C[C@@H](Oc1cc(-c2cnn(C3CCNCC3)c2)cnc1N)c1c(Cl)ccc(F)c1Cl [Crizotinib] (partner 1 µM)
Summary of the method: (§1)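 A single step with final 0.05% Triton X-100, 1% formaldehyde and 1 ug/ml Hoechst fixed the cells and stained nuclei 5 days after treatment. Lung cancer cell lines in 1536-well plates had been treated by pin tool the day after seeding with one drug alone or a fixed anchor-drug dose plus five library-drug doses (not always all listed) in √10 steps, and nuclei were counted on 4× images. Relative viability is the ratio of nuclei in treated wells to nuclei in vehicle wells, taken as the median of duplicate plates.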

KIN001-266 + Vorinostat = compound: CCN1CCC(CC1)N2C=C(N=N2)CNC3=CC4=C(C(=CN=C4C(=C3)Cl)C#N)NC5=CC(=C(C=C5)F)Cl [KIN001-266] + O=C(CCCCCCC(=O)Nc1ccccc1)NO [Vorinostat] (partner 1 µM)
Summary of the method: as §1

KIN001-266 + Pictilisib = compound: CCN1CCC(CC1)N2C=C(N=N2)CNC3=CC4=C(C(=CN=C4C(=C3)Cl)C#N)NC5=CC(=C(C=C5)F)Cl [KIN001-266] + CS(=O)(=O)N1CCN(Cc2cc3nc(-c4cccc5[nH]ncc45)nc(N4CCOCC4)c3s2)CC1 [Pictilisib] (partner 1 µM)
Summary of the method: as §1

KIN001-266 + Dasatinib = compound: CCN1CCC(CC1)N2C=C(N=N2)CNC3=CC4=C(C(=CN=C4C(=C3)Cl)C#N)NC5=CC(=C(C=C5)F)Cl [KIN001-266] + Cc1nc(Nc2ncc(C(=O)Nc3c(C)cccc3Cl)s2)cc(N2CCN(CCO)CC2)n1 [Dasatinib] (partner 0.075 µM)
Summary of the method: as §1

Cell Line	relative viability (KIN001-266 + Crizotinib; first compound 0.08 µM)	relative viability (KIN001-266 + Crizotinib; first compound 0.253 µM)	relative viability (KIN001-266 + Crizotinib; first compound 0.8 µM)	relative viability (KIN001-266 + Crizotinib; first compound 2.53 µM)	relative viability (KIN001-266 + Crizotinib; first compound 8 µM)	relative viability (KIN001-266 + Vorinostat; first compound 0.08 µM)	relative viability (KIN001-266 + Vorinostat; first compound 0.253 µM)	relative viability (KIN001-266 + Vorinostat; first compound 0.8 µM)	relative viability (KIN001-266 + Vorinostat; first compound 2.53 µM)	relative viability (KIN001-266 + Vorinostat; first compound 8 µM)	relative viability (KIN001-266 + Pictilisib; first compound 0.08 µM)	relative viability (KIN001-266 + Pictilisib; first compound 0.253 µM)	relative viability (KIN001-266 + Pictilisib; first compound 0.8 µM)	relative viability (KIN001-266 + Pictilisib; first compound 2.53 µM)	relative viability (KIN001-266 + Pictilisib; first compound 8 µM)	relative viability (KIN001-266 + Dasatinib; first compound 0.08 µM)	relative viability (KIN001-266 + Dasatinib; first compound 0.253 µM)	relative viability (KIN001-266 + Dasatinib; first compound 0.8 µM)	relative viability (KIN001-266 + Dasatinib; first compound 2.53 µM)	relative viability (KIN001-266 + Dasatinib; first compound 8 µM)
NCI-H1651	0.935	0.872	0.876	0.853	0.823	0.568	0.564	0.533	0.681	0.577	0.582	0.601	0.51	0.633	0.435	0.43	0.421	0.388	0.472	0.411
NCI-H1666	0.963	1.21	1.01	0.964	0.797	1.04	1.06	1.01	1.03	1	0.608	0.523	0.49	0.367	0.347	0.798	0.811	0.784	0.833	0.804
NCI-H1734	0.647	0.601	0.589	0.681	0.51	0.849	0.85	0.743	0.796	0.599	0.521	0.452	0.454	0.418	0.43	0.474	0.466	0.43	0.419	0.401
NCI-H1755	0.942	0.798	0.836	0.826	0.718	0.726	0.75	0.7	0.691	0.763	0.463	0.447	0.387	0.458	0.398	0.415	0.387	0.471	0.478	0.451
NCI-H1915	0.895	0.87	0.902	0.918	0.851	0.499	0.484	0.534	0.509	0.544	1.03	0.949	0.947	1.05	0.781	0.369	0.316	0.357	0.396	0.292
NCI-H1944	1.13	1.13	1.1	1.08	1.24	0.58	0.508	0.469	0.575	0.625	0.363	0.363	0.333	0.356	0.352	0.244	0.215	0.187	0.214	0.209
NCI-H1975	1.04	0.928	0.964	0.966	0.842	0.693	0.688	0.716	0.707	0.604	0.316	0.308	0.304	0.294	0.326	0.396	0.355	0.344	0.388	0.319
NCI-H1993	0.954	0.858	0.982	0.815	0.776	0.959	0.604	0.685	0.713	0.471	0.872	0.691	0.967	0.837	0.976	0.767	0.621	0.521	0.553	0.568
NCI-H2009	1.05	1.05	0.984	0.928	0.901	0.724	0.736	0.676	0.653	0.516	0.852	0.935	1.02	0.669	0.48	0.382	0.313	0.302	0.274	0.201
NCI-H2023	0.732	0.603	0.576	0.648	0.459	0.676	0.871	0.675	0.636	0.539	0.242	0.293	0.267	0.259	0.232	0.608	0.555	0.63	0.526	0.533
NCI-H2085	0.867	1.05	0.875	0.794	0.615	0.785	0.779	0.808	0.772	0.667	0.524	0.452	0.421	0.462	0.458	0.221	0.234	0.241	0.239	0.244
NCI-H2087	0.699	0.81	0.604	0.786	0.532	0.455	0.776	0.965	0.898	0.594	1.02	0.934	0.71	0.868	0.554	0.914	0.887	0.866	0.87	0.472
NCI-H2126	1.04	1.02	0.965	1.05	1.08	0.809	0.783	0.751	0.732	0.694	0.53	0.538	0.449	0.434	0.5	0.656	0.631	0.599	0.624	0.589
NCI-H2170	1.17	1.19	1.22	1.11	1.18	0.853	0.759	0.828	0.752	0.83	0.372	0.392	0.344	0.296	0.3	0.422	0.505	0.571	0.594	0.576
NCI-H2228	0.583	0.435	0.565	0.493	0.471	0.631	0.645	0.722	0.509	0.422	0.343	0.312	0.425	0.276	0.432	0.544	0.538	0.511	0.434	0.451
